US11130769B2 (Prelude Therapeutics Incorporated, priority 2018, dated 2021)
Read-outs that look alike come from different tables or passages of the source.

Experiments:
MCL-1 = MCL-1 (Homo sapiens (Human), UniProt Q07820); assay: Cell free Mcl-1:Bim affinity assay (fluorescence polarization competition); type: binding; details: 15 nM MCL-1, 5 nM FITC-Bim, 1 hour at room temperature, read-out: BIM_Ki
Experimental: The binding affinity of each compound was measured via a fluorescence polarization competition assay, in which the compound competes for the same binding site with the ligand, and thus leads to a dose-dependent anisotropy reduction. The tracer ligand utilized was a fluorescein isothiocyanate labelled peptide (FITC-[…]) derived from Bim (GenScript).
The assay was carried out in black half-area 96-well NBS plate (Corning), containing 15 nM of MCL-1 (BPS Bioscience), 5 nM of FITC-Bim and 3-fold serial diluted test compounds in a total volume of 50 μL of assay buffer (20 mM HEPES, 50 mM NaCl, 0.002% Tween 20, 1 mM TCEP, and 1% DMSO). The reaction plate was incubated for 1 hour at room temperature. The change of anisotropy is measured with an Envision multimode plate reader (PerkinElmer) at emission wavelength 535 nm. Fluorescence polarization was calculated in mP unit and the percentage inhibition was calculated by % inhibition=100×(mPDMSO−mP)/(mPDMSO−mPPC), in which mPDMSO is the DMSO control, and mPpc is the positive control. IC50 values were determined from a 10-point dose response curve by fitting the percent inhibition against compound concentration using the GraphPad Prism software. The inhibition constant Ki was subsequently calculated according to the Nikolovska-Coleska's equation (Anal. Biochem., 2004, 332, 261),
[formula] • where [I]50 is the concentration of the free inhibitor at 50% inhibition, [L]50 is the concentration of the free labeled ligand at 50% inhibition, [P]0 is the concentration of the free protein at 0% inhibition, and Kd is the dissociation constant of the protein-ligand complex. See Table F. Caspase 3/7 Activity Assay

H929 cells = assay: Cell viability assay (H929 10 FBS); type: cell-based; details: Homo sapiens, NCI-H929, 24 hours, read-out: H929_10FBS IC50
Experimental: Cell Viability Assay (H929 10 FBS)
Dispense 10 μL aliquot of prepared H929 cells (1:1 ratio of cells:Trypan Blue (#1450013, Bio-Rad)) onto cell counting slide (#145-0011, Bio-Rad) and obtain cell density and cell viability using cell counter (TC20, Bio-Rad). Remove appropriate volume of resuspended cells from culture flask to accommodate 4000 cells/well @ 10 μL/well. Transfer H929 cells to 50 mL conical (#430290, Corning). Spin down at 1000 rpm for 5 min using tabletop centrifuge (SPINCHRON 15, Beckman). Discard supernatant and resuspend cell pellet in modified RPMI 1640 (#10-040-CV, Corning) cell culture media containing 10% FBS (F2422-500 ML, Sigma), sodium pyruvate (100 mM) (#25-000-CL, Corning), HEPES buffer (1 M) (#25-060-CL, Corning) and glucose (200 g/L) (A24940-01, Gibco) to a cell density of 400,000 cells/mL. Dispense 10 μL of resuspended H929 cells per well in 384-well small volume TC treated plate (#784080, Greiner Bio-one) using standard cassette (#50950372, Thermo Scientific) on Multi-drop Combi (#5840310, Thermo Scientific) in laminar flow cabinet. Dispense compounds onto plates using digital liquid dispenser (D300E, Tecan). Incubate plates in humidified tissue culture incubator @ 37° C. for 24 hours. Add 10 μL of prepared CellTiTer-Glo® detection buffer (G7570, Promega) or ATPlite 1 Step detection reagent (#6016731, Perkin Elmer) to each well of 384-well plate using small tube cassette (#24073295, Thermo Scientific) on Combi multi drop, incubate @ RT for 30-60 min. Read plates with microplate reader (PheraStar, BMG Labtech) using 384 well luminescence mode.

Sequence of MCL-1 (Q07820 whole entry): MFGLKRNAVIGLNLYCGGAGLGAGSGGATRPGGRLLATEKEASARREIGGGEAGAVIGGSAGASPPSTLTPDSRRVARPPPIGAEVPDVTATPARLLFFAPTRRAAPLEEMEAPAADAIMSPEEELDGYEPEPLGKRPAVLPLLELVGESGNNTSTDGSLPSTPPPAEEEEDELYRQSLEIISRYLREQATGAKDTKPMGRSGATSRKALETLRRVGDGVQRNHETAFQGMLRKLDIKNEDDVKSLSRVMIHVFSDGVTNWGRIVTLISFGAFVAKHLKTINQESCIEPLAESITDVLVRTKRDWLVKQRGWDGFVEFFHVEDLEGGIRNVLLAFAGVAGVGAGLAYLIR

Row | Ki (MCL-1; numeric values) [nM] | IC50 (H929 cells) [nM] | Ki (MCL-1; class symbols) [nM] | SMILES
1 | 22 | > 1000 |  | O=C(NS(=O)(=O)c1ccc2c(c1)N(CC1CCC1)C[C@@]1(CCCc3cc(Cl)ccc31)CO2)C1CCCC1 [Example 13, N-[(3S)-6′-Chloro-5-(cyclobutylmethyl)spiro[2,4-dihydro-1,5-benzoxazepine-3,1′-tetralin]-7-yl]sulfonylcyclopentanecarboxamide]
2 | 8.7 | > 1000 |  | Cc1cc(CC(=O)NS(=O)(=O)c2ccc3c(c2)N(CC2CCC2)C[C@@]2(CCCc4cc(Cl)ccc42)CO3)nn1C [Example 15, 2-(1,5-Dimethylpyrazol-3-yl)-N-[(3S)-6′-chloro-5-(cyclobutylmethyl)spiro[2,4-dihydro-1,5-benzoxazepine-3,1′-tetralin]-7-yl]sulfonyl-acetamide]
3 | 9 | > 1000 |  | O=C(Cc1nccs1)NS(=O)(=O)c1ccc2c(c1)N(CC1CCC1)C[C@@]1(CCCc3cc(Cl)ccc31)CO2 [Example 16, N-[(3S)-6′-Chloro-5-(cyclobutylmethyl)spiro[2,4-dihydro-1,5-benzoxazepine-3,1′-tetralin]-7-yl]sulfonyl-2-thiazol-2-yl-acetamide]
4 | 7.4 | > 1000 |  | Cc1ccc(CC(=O)NS(=O)(=O)c2ccc3c(c2)N(CC2CCC2)C[C@@]2(CCCc4cc(Cl)ccc42)CO3)cn1 [Example 17, 2-(6-Methyl-3-pyridyl)-N-[(3S)-6′-chloro-5-(cyclobutylmethyl)spiro[2,4-dihydro-1,5-benzoxazepine-3,1′-tetralin]-7-yl]sulfonyl-acetamide]
5 | 1.4 | > 1000 |  | O=C1Cc2cccc(c2)OC[C@@H]2CC[C@H]2CN2C[C@@]3(CCCc4cc(Cl)ccc43)COc3ccc(cc32)S(=O)(=O)N1 [Example 18, (3R,6R,24S)-6′-Chloro-17,17-dioxo-spiro[8,22-dioxa-17λ^6-thia-1,16-diazapentacyclo[16.7.2.1^9,13.0^3,6.0^21,26]octacosa-9(28),10,12,18(27),19,21(26)-hexaene-24,1′-tetralin]-15-one]
6 | 9.3 | > 1000 |  | O=C(Cc1ccncc1)NS(=O)(=O)c1ccc2c(c1)N(CC1CCC1)C[C@@]1(CCCc3cc(Cl)ccc31)CO2 [Example 19, 2-Pyridin-4-yl-N-[(3S)-6′-chloro-5-(cyclobutylmethyl)spiro[2,4-dihydro-1,5-benzoxazepine-3,1′-tetralin]-7-yl]sulfonyl-acetamide]
7 | 53.3 | > 1000 |  | CC(C)(C)OC(=O)N1CCC(C(=O)NS(=O)(=O)c2ccc3c(c2)N(CC2CCC2)CC2(CCCc4cc(Cl)ccc42)CO3)CC1 (stereo not shown) [Example 21, tert-Butyl 4-[[6′-chloro-5-(cyclobutylmethyl)spiro[2,4-dihydro-1,5-benzoxazepine-3,1′-tetralin]-7-yl]sulfonylcarbamoyl]piperidine-1-carboxylate]
8 | 57 | > 1000 |  | CC(C)(C)OC(=O)N1CCC(CC(=O)NS(=O)(=O)c2ccc3c(c2)N(CC2CCC2)CC2(CCCc4cc(Cl)ccc42)CO3)CC1 (stereo not shown) [Example 22, tert-Butyl 4-[2-[[6′-chloro-5-(cyclobutylmethyl)spiro[2,4-dihydro-1,5-benzoxazepine-3,1′-tetralin]-7-yl]sulfonylamino]-2-oxo-ethyl]piperidine-1-carboxylate]
9 | 73.6 | > 1000 |  | CC(C)(C)OC(=O)N1CCC[C@H](OC(=O)NS(=O)(=O)c2ccc3c(c2)N(CC2CCC2)CC2(CCCc4cc(Cl)ccc42)CO3)C1 (stereo partly drawn) [Example 23, tert-Butyl (3S)-3-[[6′-chloro-5-(cyclobutylmethyl)spiro[2,4-dihydro-1,5-benzoxazepine-3,1′-tetralin]-7-yl]sulfonylcarbamoyloxy]piperidine-1-carboxylate]
10 | 6 | > 1000 |  | O=C(NS(=O)(=O)c1ccc2c(c1)N(CC1CCC1)CC1(CCCc3cc(Cl)ccc31)CO2)N1CCCC1 (stereo not shown) [Example 24, N-[6′-Chloro-5-(cyclobutylmethyl)spiro[2,4-dihydro-1,5-benzoxazepine-3,1′-tetralin]-7-yl]sulfonylpyrrolidine-1-carboxamide]
11 | 9 | > 1000 |  | O=C1Cc2cccc(c2)SC[C@@H]2CCC2CN2CC3(CCCc4cc(Cl)ccc43)COc3ccc(cc32)S(=O)(=O)N1 (stereo partly drawn) [Example 25, (1S,1′R,2′R)-6-Chloro-3,4-dihydro-2H-spiro[naphthalene-1,3′-5,10-dithia-9-aza-1(5,7)-benzo[b][1,4]oxazepina-6(1,3)-benzena-3(1,2)-cyclobutanacyclodecaphan]-8′-one 10′,10′-dioxide]
12 |  | > 1000 | 1 to 100 | CO[C@H]1/C=C/CNCC2(CCC2)C(=O)NS(=O)(=O)c2ccc3c(c2)N(C[C@H]2CCC21)CC1(CCCc2cc(Cl)ccc21)CO3 (stereo partly drawn) [Example 26, (3R,6R,7R,8E,23S)-6′-Chloro-7-methoxy-13,13-(1,3-propylene)-16,16-dioxo-spiro[21-oxa-16-thia-1,11,15-triazatetracyclo[15.7.2.03,6.020,25]hexacosa[8,17(26),18,20(25)]tetraene-23,1′-tetralin]-14-one]
13 |  | > 1000 | 1 to 100 | CO[C@@H]1/C=C/CN(C)CC2(CCC2)C(=O)NS(=O)(=O)c2ccc3c(c2)N(C[C@@H]2CC[C@H]21)C[C@@]1(CCCc2cc(Cl)ccc21)CO3 [Example 27, (3R,6R,7R,8E,23S)-6′-Chloro-7-methoxy-11-methyl-13,13-(1,3-propylene)-16,16-dioxo-spiro[21-oxa-16-thia-1,11,15-triazatetracyclo[15.7.2.03,6.020,25]hexacosa[8,17(26),18,20(25)]tetraene-23,1′-tetralin]-14-one]
14 |  | > 1000 | < 1 | CO[C@H]1/C=C/COC2(CC2)C(=O)NS(=O)(=O)c2ccc3c(c2)N(C[C@@H]2CC[C@H]21)C[C@@]1(CCCc2cc(Cl)ccc21)CO3 [Example 28, (3R,6R,7S,8E,22S)-6′-Chloro-7-methoxy-12,12-ethylene-15,15-dioxo-spiro[[11,20]dioxa-15-thia-1,14-diazatetracyclo[14.7.2.03,6.019,24]pentacosa[8,16(25),17,19(24)]tetraene-22,1′-tetralin]-13-one]
15 |  | < 1000 | < 1 | CO[C@@H]1/C=C/COC2(CC2)C(=O)NS(=O)(=O)c2ccc3c(c2)N(C[C@@H]2CC[C@H]21)C[C@@]1(CCCc2cc(Cl)ccc21)CO3 [Example 29, (3R,6R,7R,8E,22S)-6′-Chloro-7-methoxy-12,12-ethylene-15,15-dioxo-spiro[[11,20]dioxa-15-thia-1,14-diazatetracyclo[14.7.2.03,6.019,24]pentacosa[8,16(25),17,19(24)]tetraene-22,1′-tetralin]-13-one]
16 |  | < 1000 | < 1 | CO[C@@H]1/C=C/COC(C)(C)C(=O)NS(=O)(=O)c2ccc3c(c2)N(C[C@@H]2CC[C@H]21)C[C@@]1(CCCc2cc(Cl)ccc21)CO3 [Example 30, (3R,6R,7R,8E,22S)-6′-Chloro-7-methoxy-12,12-dimethyl-15,15-dioxo-spiro[[11,20]dioxa-15-thia-1,14-diazatetracyclo[14.7.2.03,6.019,24]pentacosa[8,16(25),17,19(24)]tetraene-22,1′-tetralin]-13-one]
17 |  | > 1000 | 1 to 100 | CO[C@@H]1/C=C/COC2(CCC2)C(=O)NS(=O)(=O)c2ccc3c(c2)N(C[C@@H]2CC[C@H]21)C[C@@]1(CCCc2cc(Cl)ccc21)CO3 [Example 31, (3R,6R,7R,8E,22S)-6′-Chloro-7-methoxy-12,12-(1,3-propylene)-15,15-dioxo-spiro[11,20-dioxa-15-thia-1,14-diazatetracyclo[14.7.2.03,6.019,24]pentacosa[8,16(25),17,19(24)]tetraene-22,1′-tetralin]-13-one]
